Results reported in patent publication US12448369B2 (Edgewise Therapeutics, Inc., priority 2023, dated 2025).
Marks after values point to notes of the source that are not given here.

Columns and labels:
[1] = system: Porcine atria myofibrils (atrial myosin ATPase); experiment: Myofibril ATPase assay, porcine atria myofibrils; type: biochemical; settings: porcine atria myofibrils
How it was run: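 Coupled PK-LDH reaction links ADP from myosin ATPase to NADH loss, read at 340 nm every 1.5-2 min for 75 min. Slopes (mAU/min) normalized to vehicle-only wells (100%) and fit to a 4-parameter logistic; Y75 is the concentration cutting activity by 25%, Y125 is reported for activators.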

[2] = target: T1, Porcine ventricle myofibrils (ventricular myosin ATPase) (Sus scrofa, UniProt P79293); experiment: Myofibril ATPase assay, porcine ventricle myofibrils; type: biochemical, porcine (Yucatan minipigs); settings: porcine ventricle myofibrils
T1 construct: Myofibrils from porcine cardiac muscle was isolated from the left ventricle of Yucatan minipigs; tissue Exemplar Genetics; host or cells: left ventricle of Yucatan minipigs, myofibrils prepared in house
How it was run: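 Left-ventricle myofibrils from Yucatan minipigs were tested with a PK/LDH-coupled system, following NADH loss at 340 nm every 1.5-2 min for 75 min. Slopes were normalized to vehicle wells and fit to a 4-parameter logistic model; values are Y75 (25% ATPase reduction) or Y125 concentrations.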

[3] = system: Rabbit Psoas myofibrils (skeletal myosin ATPase); experiment: Myofibril ATPase assay, rabbit psoas (skeletal) myofibrils; type: biochemical; settings: rabbit psoas myofibrils
How it was run: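 Rabbit psoas skeletal myofibrils in PIPES/CaCl2/EGTA pCa buffer, pH 7.0. ATPase rate followed by PK-LDH-coupled NADH loss at 340 nm, read every 1.5–2 min for 75 min. Slopes normalized to vehicle (100%) and fitted to a 4-parameter logistic; values are Y75 (25% inhibition) or Y125 (25% activation) concentrations.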

[4] = Y75 value (75% activity relative to no compound)
[5] = ‡ Y125 value, not a Y75 value (125% activity relative to no compound)

T1 sequence (P79293 whole entry): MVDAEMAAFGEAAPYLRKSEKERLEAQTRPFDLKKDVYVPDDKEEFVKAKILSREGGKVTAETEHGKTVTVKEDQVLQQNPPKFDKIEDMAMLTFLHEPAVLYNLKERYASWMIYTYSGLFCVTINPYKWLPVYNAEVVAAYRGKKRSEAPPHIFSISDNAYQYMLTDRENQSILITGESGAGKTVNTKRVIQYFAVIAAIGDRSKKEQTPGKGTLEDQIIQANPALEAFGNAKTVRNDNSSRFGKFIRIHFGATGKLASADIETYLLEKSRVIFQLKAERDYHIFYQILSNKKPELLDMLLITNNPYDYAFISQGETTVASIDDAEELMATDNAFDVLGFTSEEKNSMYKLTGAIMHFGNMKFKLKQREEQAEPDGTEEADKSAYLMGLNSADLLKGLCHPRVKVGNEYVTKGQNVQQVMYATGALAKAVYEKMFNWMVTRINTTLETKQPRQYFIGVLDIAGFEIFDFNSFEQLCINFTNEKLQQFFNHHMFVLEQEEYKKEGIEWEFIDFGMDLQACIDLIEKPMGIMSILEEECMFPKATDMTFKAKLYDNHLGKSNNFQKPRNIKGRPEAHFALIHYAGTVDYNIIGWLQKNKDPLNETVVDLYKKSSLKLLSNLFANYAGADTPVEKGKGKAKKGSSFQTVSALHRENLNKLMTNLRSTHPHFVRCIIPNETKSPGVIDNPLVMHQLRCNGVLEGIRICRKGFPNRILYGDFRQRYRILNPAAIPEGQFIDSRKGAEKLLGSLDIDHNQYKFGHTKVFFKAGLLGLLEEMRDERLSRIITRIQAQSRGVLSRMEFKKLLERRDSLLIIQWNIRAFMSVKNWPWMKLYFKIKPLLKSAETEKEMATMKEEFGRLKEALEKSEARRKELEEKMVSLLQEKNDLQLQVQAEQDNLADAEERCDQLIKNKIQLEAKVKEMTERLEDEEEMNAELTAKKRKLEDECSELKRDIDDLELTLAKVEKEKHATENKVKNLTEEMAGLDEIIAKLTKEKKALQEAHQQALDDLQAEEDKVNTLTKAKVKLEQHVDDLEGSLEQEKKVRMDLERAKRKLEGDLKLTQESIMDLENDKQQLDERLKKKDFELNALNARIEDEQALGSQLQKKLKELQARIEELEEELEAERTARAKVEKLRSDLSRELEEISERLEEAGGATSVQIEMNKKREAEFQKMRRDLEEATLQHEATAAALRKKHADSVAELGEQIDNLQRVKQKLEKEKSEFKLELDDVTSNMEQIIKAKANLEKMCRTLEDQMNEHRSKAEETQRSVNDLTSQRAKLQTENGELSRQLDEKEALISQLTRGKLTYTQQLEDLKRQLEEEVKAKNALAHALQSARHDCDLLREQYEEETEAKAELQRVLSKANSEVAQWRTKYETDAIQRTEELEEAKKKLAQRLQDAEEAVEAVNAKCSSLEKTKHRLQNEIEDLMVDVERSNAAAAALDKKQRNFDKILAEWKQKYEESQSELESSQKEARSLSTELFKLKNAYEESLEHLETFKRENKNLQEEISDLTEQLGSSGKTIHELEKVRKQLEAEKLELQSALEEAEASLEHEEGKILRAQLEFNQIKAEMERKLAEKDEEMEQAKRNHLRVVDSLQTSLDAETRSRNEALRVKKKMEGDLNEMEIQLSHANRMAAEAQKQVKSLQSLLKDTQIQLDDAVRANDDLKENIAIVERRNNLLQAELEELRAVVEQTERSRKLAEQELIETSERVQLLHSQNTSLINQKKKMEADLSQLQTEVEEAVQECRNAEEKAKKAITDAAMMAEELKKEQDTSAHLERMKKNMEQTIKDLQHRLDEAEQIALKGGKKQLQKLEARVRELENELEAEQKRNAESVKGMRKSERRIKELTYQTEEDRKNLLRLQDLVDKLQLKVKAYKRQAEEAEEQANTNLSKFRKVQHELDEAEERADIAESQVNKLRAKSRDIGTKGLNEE

Cc1c(F)ccc2[nH]c(=O)c(C(F)(F)C(=O)N[C@@H](C)c3ncc(C#N)cn3)c(C)c12 (single isomer, unassigned) [compound 4832]
Atrial EC25 ([1]; Y75 value (no ‡ mark)): 0.12 µM
Ventricular EC25 ([2]; Y75 value (no ‡ mark)): 0.58 µM
Skeletal EC25 ([3]; Y75 value (no ‡ mark)): 0.17 µM

C[C@H](NC(=O)Cc1cc2nc(Cl)ccc2[nH]c1=O)c1ccc(F)cc1F [compound 388]
Atrial EC25 [1, 4]: 1.08 µM
Ventricular EC25 ([2]; Y75 value): 38.06 µM
Skeletal EC25 ([3]; Y75 value): 0.67 µM

Cc1nccc2[nH]c(=O)c(C(F)(F)C(=O)N[C@H](CO)c3ncc(C#N)cc3F)c(C)c12 (single isomer, unassigned) [compound 3522]
Atrial EC25 [1, 4]: 1.10 µM
Ventricular EC25 ([2]; Y75 value): 2.90 µM
Skeletal EC25 ([3]; Y75 value): 0.28 µM

Cc1nccc2[nH]c(=O)c(CC(=O)N[C@H](CO)c3ccccn3)c(C)c12 (single isomer, unassigned) [compound 316]
Atrial EC25 [1, 4]: 100.00 µM
Ventricular EC25 ([2]; Y75 value): 100.00 µM
Skeletal EC25 ([3]; Y75 value): 100.00 µM

Cc1c(CC(=O)N[C@@H](C)c2ccc(F)cc2F)c(=O)[nH]c2ccnc(F)c12 [compound 391]
Atrial EC25 [1, 4]: 0.05 µM
Ventricular EC25 ([2]; Y75 value): 0.29 µM
Skeletal EC25 ([3]; Y75 value): 0.01 µM

Cc1nccc2[nH]c(=O)c(CC(=O)N[C@H](C)c3ccc(O)cc3)c(C)c12 (single isomer, unassigned) [compound 328]
Atrial EC25 [1, 4]: 100.00 µM
Ventricular EC25 ([2]; Y75 value): 100.00 µM
Skeletal EC25 ([3]; Y75 value): 100.00 µM

C[C@@H](NC(=O)Cc1cc2cc(F)c(F)cc2[nH]c1=O)c1cnc(C#N)nc1 [compound 1074]
Atrial EC25 ([1]; Y75 value (no ‡ mark)): 100.00 µM
Ventricular EC25 ([2]; Y75 value (no ‡ mark)): 100.00 µM
Skeletal EC25 ([3]; Y75 value (no ‡ mark)): 100.00 µM

C[C@H](NC(=O)Cc1c(C(F)(F)F)c2c(Cl)nccc2[nH]c1=O)c1ccc(F)cc1F [compound 428]
Atrial EC25 [1, 4]: 1.35 µM
Ventricular EC25 ([2]; Y75 value): 1.94 µM
Skeletal EC25 ([3]; Y75 value): 0.09 µM

CNc1nccc2[nH]c(=O)c(CC(=O)N[C@@H](C)c3ccc(F)cc3F)c(C)c12 [compound 354]
Atrial EC25 [1, 4]: 2.11 µM
Ventricular EC25 ([2]; Y75 value): 49.13 µM
Skeletal EC25 ([3]; Y75 value): 0.19 µM

CC(NC(=O)C(F)(F)c1cc2cc(F)ccc2[nH]c1=O)c1cc(C#N)ccn1 (single isomer, unassigned) [Compound 2573]
Atrial EC25 ([1]; Y75 value (no ‡ mark)): 100.00 µM
Ventricular EC25 ([2]; Y75 value (no ‡ mark)): 100.00 µM
Skeletal EC25 ([3]; Y75 value (no ‡ mark)): 100.00 µM

Cc1nccc2[nH]c(=O)c(CC(=O)N[C@@H](C)c3ccc(C#N)cc3F)c(Cl)c12 [compound 152]
Atrial EC25 [1, 4]: 0.05 µM
Ventricular EC25 ([2]; Y75 value): 0.09 µM
Skeletal EC25 ([3]; Y75 value): 0.01 µM

Cc1c([C@@H](C)C(=O)N[C@@H](C)c2ncc(C#N)cc2F)c(=O)[nH]c2ccc(F)c(F)c12 (relative stereo) [compound 2602, rel-(2R*)-N-[(1S)-1-(5-cyano-3-fluoropyridin-2-yl)ethyl]-2-(5,6-difluoro-4-methyl-2-oxo-1H-quinolin-3-yl) propanamide]
Atrial EC25 ([1]; Y75 value (no ‡ mark)): 0.05 µM
Ventricular EC25 ([2]; Y75 value (no ‡ mark)): 0.08 µM
Skeletal EC25 ([3]; Y75 value (no ‡ mark)): 0.02 µM

Cc1c([C@@H](C)C(=O)N[C@@H](C)c2ccc(F)cc2F)c(=O)[nH]c2ccnc(OC(F)(F)F)c12 (single isomer, unassigned) [compound 347]
Atrial EC25 [1, 4]: 0.94 µM
Ventricular EC25 ([2]; Y75 value): 20.36 µM
Skeletal EC25 ([3]; Y75 value): 0.35 µM

Cc1c(C2(C(=O)N[C@H](C)c3ncc(C#N)cc3F)CC2)c(=O)[nH]c2cccc(C#N)c12 (single isomer, unassigned) [compound 2541]
Atrial EC25 ([1]; Y75 value (no ‡ mark)): 0.33 µM
Ventricular EC25 ([2]; Y75 value (no ‡ mark)): 0.70 µM
Skeletal EC25 ([3]; Y75 value (no ‡ mark)): 0.85 µM

N#Cc1cc(F)c2c(c1)OC[C@@H]2NC(=O)C1(c2cc3c(F)c(F)ccc3[nH]c2=O)CC1 (single isomer, unassigned) [compound 4822]
Atrial EC25 ([1]; Y75 value (no ‡ mark)): 0.16 µM
Ventricular EC25 ([2]; Y75 value (no ‡ mark)): 0.48 µM
Skeletal EC25 ([3]; Y75 value (no ‡ mark)): 0.08 µM

Cc1c(CC(=O)N[C@H]2COc3cccnc32)c(=O)[nH]c2ccnc(C#N)c12 (single isomer, unassigned) [compound 213]
Atrial EC25 [1, 4]: 100.00 µM
Ventricular EC25 ([2]; Y75 value): 100.00 µM
Skeletal EC25 ([3]; Y75 value): 7.67 µM

Cc1nccc2[nH]c(=O)c(CC(=O)N[C@@H](c3ccc(F)cc3F)C(C)(C)O)c(C)c12 (single isomer, unassigned) [compound 271]
Atrial EC25 [1, 4]: 100.00 µM
Ventricular EC25 ([2]; Y75 value): 100.00 µM
Skeletal EC25 ([3]; Y75 value): 100.00 µM

Cc1c(C2(C(=O)NC(C)c3cccc(C#N)n3)CC2)c(=O)[nH]c2ccc(F)cc12 (single isomer, unassigned) [Compound 2580]
Atrial EC25 ([1]; Y75 value (no ‡ mark)): 4.52 µM
Ventricular EC25 ([2]; Y75 value (no ‡ mark)): 100.00 µM
Skeletal EC25 [3, 5]: 17.17‡ μM

C[C@H](NC(=O)Cc1c(C#N)c2cc(F)ccc2[nH]c1=O)c1ncc(C#N)cc1F [compound 1095]
Atrial EC25 ([1]; Y75 value (no ‡ mark)): 0.18 µM
Ventricular EC25 ([2]; Y75 value (no ‡ mark)): 0.42 µM
Skeletal EC25 ([3]; Y75 value (no ‡ mark)): 0.06 µM

C[C@@H](NC(=O)[C@H](C)c1cc2c(F)c(F)ccc2[nH]c1=O)c1ncc(C#N)cc1F (single isomer, unassigned) [compound 2598]
Atrial EC25 ([1]; Y75 value (no ‡ mark)): 0.60 µM
Ventricular EC25 ([2]; Y75 value (no ‡ mark)): 1.10 µM
Skeletal EC25 [3, 5]: 100.00‡ μM

C[C@H](NC(=O)Cc1cc2c(C#N)cccc2[nH]c1=O)c1ncc(C#N)cn1 (single isomer, unassigned) [compound 2038]
Atrial EC25 ([1]; Y75 value (no ‡ mark)): 100.00 µM
Ventricular EC25 ([2]; Y75 value (no ‡ mark)): 100.00 µM
Skeletal EC25 ([3]; Y75 value (no ‡ mark)): 100.00 µM

Cc1c(CC(=O)N[C@H](C)c2ccc(C#N)cn2)c(=O)[nH]c2cc(F)ccc12 [compound 1072]
Atrial EC25 ([1]; Y75 value (no ‡ mark)): 17.57 µM
Ventricular EC25 ([2]; Y75 value (no ‡ mark)): 36.86 µM
Skeletal EC25 ([3]; Y75 value (no ‡ mark)): 100.00 µM

C[C@H](NC(=O)[C@H](C)c1c(C(F)(F)F)c2cnccc2[nH]c1=O)c1ccc(F)cc1F (single isomer, unassigned) [compound 427]
Atrial EC25 [1, 4]: 2.53 µM
Ventricular EC25 ([2]; Y75 value): 22.60 µM
Skeletal EC25 ([3]; Y75 value): 2.02 µM

Cc1c(CC(=O)N[C@@H](C)c2ncc(F)cc2F)c(=O)[nH]c2ccc(C#N)nc12 (single isomer, unassigned) [compound 250]
Atrial EC25 [1, 4]: 2.60 µM
Ventricular EC25 ([2]; Y75 value): 80.59 µM
Skeletal EC25 ([3]; Y75 value): 16.64 µM

C[C@@H](NC(=O)Cc1c(C(F)(F)F)c2c(C3CC3)nccc2[nH]c1=O)c1ccc(C#N)nn1 (single isomer, unassigned) [compound 3003]
Atrial EC25 (Y125 value, marked ‡) ([1]; Y125 value (125% activity), not a Y75 value): 92.51‡ μM
Ventricular EC25 ([2]; Y75 value): 100.00 µM
Skeletal EC25 (Y125 value, marked ‡) ([3]; Y125 value, not a Y75 value): 94.25‡ μM

Cc1nccc2[nH]c(=O)c(CC(=O)N[C@@H]3COc4cccnc43)c(C)c12 (single isomer, unassigned) [compound 251]
Atrial EC25 [1, 4]: 100.00 µM
Ventricular EC25 ([2]; Y75 value): 100.00 µM
Skeletal EC25 ([3]; Y75 value): 100.00 µM

Cc1c(CC(=O)N[C@@H](CO)c2ccc(F)cc2F)c(=O)[nH]c2ccc(C(F)(F)F)nc12 [compound 217]
Atrial EC25 [1, 4]: 0.36 µM
Ventricular EC25 ([2]; Y75 value): 6.79 µM
Skeletal EC25 ([3]; Y75 value): 0.71 µM

Cc1c(CC(=O)N[C@@H](CO)c2ccc(C#N)cc2F)c(=O)[nH]c2ccnc(C(F)(F)F)c12 (single isomer, unassigned) [compound 225]
Atrial EC25 [1, 4]: 0.08 µM
Ventricular EC25 ([2]; Y75 value): 2.46 µM
Skeletal EC25 ([3]; Y75 value): 0.03 µM

C[C@@H](NC(=O)Cc1c(C2CC2)c2cnccc2[nH]c1=O)c1ncc(C#N)cc1F [compound 142]
Atrial EC25 [1, 4]: 100.00 µM
Ventricular EC25 ([2]; Y75 value): 100.00 µM
Skeletal EC25 ([3]; Y75 value): 100.00 µM

Cc1c(CC(=O)N[C@H](CO)c2ncc(F)cc2F)c(=O)[nH]c2ccnc(C#N)c12 [compound 261]
Atrial EC25 [1, 4]: 100.00 µM
Ventricular EC25 ([2]; Y75 value): 100.00 µM
Skeletal EC25 ([3]; Y75 value): 26.68 µM

Cc1nccc2[nH]c(=O)c(CC(=O)N[C@@H]3CNc4cc(F)cc(F)c43)c(C)c12 (single isomer, unassigned) [compound 181]
Atrial EC25 [1, 4]: 0.31 µM
Ventricular EC25 ([2]; Y75 value): 2.51 µM
Skeletal EC25 ([3]; Y75 value): 0.09 µM

Cc1c(CC(=O)N[C@@H](C)c2ncc(F)cc2F)c(=O)[nH]c2ccnc(C(F)(F)F)c12 (single isomer, unassigned) [compound 266]
Atrial EC25 [1, 4]: 0.25 µM
Ventricular EC25 ([2]; Y75 value): 1.11 µM
Skeletal EC25 ([3]; Y75 value): 0.21 µM

Cc1cccc([C@H](C)NC(=O)Cc2c(C)c3c(C)nccc3[nH]c2=O)c1 (single isomer, unassigned) [compound 340]
Atrial EC25 [1, 4]: 36.97 µM
Ventricular EC25 ([2]; Y75 value): 100.00 µM
Skeletal EC25 ([3]; Y75 value): 100.00 µM

C[C@@H](NC(=O)Cc1cc2c(C#N)nccc2[nH]c1=O)c1ccc(F)cn1 [compound 474]
Atrial EC25 [1, 4]: 100.00 µM
Ventricular EC25 ([2]; Y75 value): 100.00 µM
Skeletal EC25 ([3]; Y75 value): 15.42 µM

Cc1c(CC(=O)N[C@H](C)c2ncc(F)cc2F)c(=O)[nH]c2ccc(O)nc12 (single isomer, unassigned) [compound 222]
Atrial EC25 [1, 4]: 100.00 µM
Ventricular EC25 ([2]; Y75 value): 100.00 µM
Skeletal EC25 ([3]; Y75 value): 100.00 µM

Cc1nccc2[nH]c(=O)c([C@H](C)C(=O)N[C@H](C)c3ncc(C#N)cc3F)c(C)c12 (single isomer, unassigned) [compound 192]
Atrial EC25 [1, 4]: 0.59 µM
Ventricular EC25 ([2]; Y75 value): 14.65 µM
Skeletal EC25 ([3]; Y75 value): 0.55 µM
